Peptide text beside a SMILES is read from it. * marks the point of attachment. Cbz = O=C(OCc1ccccc1)*; CH2F = FC*
Columns and labels:
Format in all cases: cell-based, canine
[1] = tested on: W&Wlis cells; test: Analysis of the type of death by flow cytometry (annexin V-FITC/propidium iodide); parameters: unit not given here; conditions: Table 5; Control cells; DIQ (300 μM); 32 hours
[2] = tested on: W&Wlis cells; test: as above; parameters: Necrosis / Apoptosis: unit not given here
Protocol: The annexin V-FITC and propidium iodide assay was performed in parallel by flow cytometry. The pattern of death of the system was analyzed when adding 5 mEU/ml of glucose oxidase and the combined therapy (5 mEU/ml of GO and 500 μg/ml of linamarin) at 48 hours, followed by the control of untreated cells and of the cells incubated with 500 μg/ml of linamarin at 96 hours. Furthermore, another group of cells was subjected to the same conditions except 10 mM of N-acetyl cysteine (NAC) were added. The cells treated with the combined therapy were subsequently studied at 48 hours in the absence and presence of 100 μM of Z-VAD-fmk, followed by the control of treatment of the cells with UV in the same conditions. Finally, the cells treated with the combined therapy were shown at 48 hours in the absence and presence of 300 μM of 1,5-isoquinolinediol (DIQ), observing that the pattern of death is not modified when PARP-1 is inhibited (FIG. 4).
10^5 W&Wlis cells were seeded in test tubes with a screw-on cap and flat side (Nunc). After 24 hours, different amounts of linamarin (50, 200 or 500 μg/ml) and glucose oxidase (5 mEU/ml) were added in the specified cases. In the appropriate assays, the medium was supplemented with N-acetyl cysteine (10 mM), 1,5-isoquinolinediol (300 μM) or Z-VAD-fmk (100 μM). […] They were centrifuged for 5 minutes at 1200 rpm and the cell precipitate was washed first with PBS and then with binding buffer (0.1 M Hepes/NaOH pH 7.4, 1.4 M NaCl and 25 mM CaCl2). The cells were again precipitated and resuspended in 100 μl of binding buffer supplemented with 5 μl of annexin V-FITC and 2.5 μg/ml of propidium iodide. The samples were incubated for 15 minutes in the dark. Data acquisition and analysis was carried out by means of a FACSCalibur flow cytometer (DB Biosciences) with the Cell Quest program.

[3] = tested on: W&Wlis cells; test: DNA content analysis by flow cytometry, labeling with propidium iodide; parameters: unit not given here; conditions: UV (24 hours), 12.5 J/m^2; Z-VAD-fmk 100 μM; UV Control = 66.14
[4] = Table 5, Control cells, DIQ (300 μM), 48 hours
[5] = 0 μg lin, Without GO, 96 hours, NAC (10 mM)
[6] = Table 4, 0 μg lin, Without GO, 72 hours, Z-VAD-fmk (100 μM)

Question: Which Necrosis [1] does the source give for Oc1cccc2c(O)nccc12 [DIQ, 1,5-isoquinolinediol, reference compound] here?
Answer: 17.62

Question: And the Apoptosis ([2]; Table 5, Control cells, DIQ (300 μM), 32 hours)?
Answer: 8.15

Question: And the Apoptosis [2, 4]?
Answer: 20.16

Question: And the Necrosis [2, 4]?
Answer: 29.59

Question: Which Apoptosis [2, 5] does the source give for CC(=O)N[C@@H](CS)C(=O)O [NAC, N-acetyl cysteine, reference compound] here?
Answer: 16.17

Question: And the Necrosis [2, 5]?
Answer: 13.46

Question: COC(=O)C[C@H](NC(=O)[C@H](C)NC(=O)[C@@H](NC(=O)OCc1ccccc1)C(C)C)C(=O)CF [Z-VAD-fmk, reference compound] (Cbz-Val-Ala-Asp(OMe)-CH2F) was tested. Which “DNA content by flow cytometry, labeling with propidium iodide” value [3] did it give?
Answer: Z-VAD-fmk = 2.71

Question: What about the Apoptosis [2, 6] of the same compound?
Answer: 2.66

Question: And the Necrosis [2, 6]?
Answer: 37.25

Question: What about the “inhibition of UV radiation-induced apoptosis” value ([2]; Z-VAD-fmk (100 μM), UV 12.5 J/m^2, DNA content and annexin V-FITC/propidium iodide) of the same compound?
Answer: complete inhibition

— patent US20100028366A1, “SYNERGISTIC EFFECT BETWEEN A […] AND ANOTHER OXIDATIVE INDUCING SYSTEM FOR TREATING TUMORS” (priority 2005, published 2010)
